≈ marks a conversion by molar mass, not a printed value.
What was measured:
[1] = Solubility in HEPES buffer by fluorescence method; format: physicochemical; conditions: aqueous buffer; HEPES buffer ([HEPES]=20 mM, pH 7.0)
Protocol: (hereinafter, ‘ACCu2’), a compound of [Chemical Formula 12] (hereinafter, ‘FL’) and a compound of [Chemical Formula 13] (hereinafter, ‘IR’) in 1,4-dioxane, DMF, ethanol, EtOH/HEPES (9:1) and HEPES buffer ([HEPES]=20 mM, pH 7.0). Excitation wavelength was 420 nm. The solubility of ACCu2 in HEPES buffer ([HEPES]=20 mM, pH 7.0) as determined by the fluorescence method described in the literature (Kim, H. M.; Choo, H. J.; Jung, S. Y.; Ko, Y. G.; Park, W. H.; Jeon, S. J.; Kim, C. H.; Joo, T. H.; Cho, B. R. Chem Bio Chem 2007, 8, 553) was 8.0 μM, which was sufficient to stain cells.

[2] = Two-photon action cross section; format: physicochemical; conditions: at 880 nm, EtOH/HEPES (9/1 v/v, pH 7.0)
Protocol: Referring to FIG. 4(a), the Φδmax value of ACCu2 in EtOH/HEPES (9/1 v/v, pH 7.0) buffer was 32 GM at 880 nm, while those for FL and IR were 32 GM at 880 nm and 46 GM at 750 nm. The lower Φδmax value of ACCu2 at 750 nm than that of IR is because of decreased fluorescence resonance energy transfer (FRET) from IR to FL and it allows to obtain bright TPM images of cells and ^.tissues labeled with ACCu2.
The two-photon cross section (δ) was determined by the fe tosecond (fs) fluorescence measurement technique described in the literature (S. K. Lee, W. J. Yang, J. J. Choi, C. H. Kim, S.-J. Jeon, B. R. Cho, Org. Lett 2005, 7, 323-326.), ACCu2 was dissolved in 20 mM HEPES buffer (pH 7.0) to a concentration of 3.0×10^−6 M and then two-photon induced fluorescence intensity was measured at 740-940 nm using rhodamine 6G as a reference, whose two-photon property has been well characterized. The intensities of two-photon induced fluorescence of the reference and the sample were determined at the same excitation wavelength.
The two-photon cross section can be calculated from equation (3). δ=δr(SsΦrΦrcr)/(SrΦsΦscs) Equation (3)
wherein s and r stand for the sample, i.e., ACCu2, and the reference, respectively. S denotes the intensity of the signal collected using a CCD detector, Φ is the fluorescence quantum yield, Φ is the overall fluorescence collection efficiency of the experimental apparatus, c is the number density of molecules in solution, and δr is the two-photon cross section of the reference molecule.

[3] = Selectivity of ACCu2 for copper(II) ion against competing metal ions; conditions: ACCu2 3 μM; Na+, K+, Ca2+, Mg2+ 1 mM; transition metal ions 500 μM; then 200 μM Cu2+; EtOH/HEPES (9/1, pH 7.0)
Protocol: The black bars show the result obtained in the presence of alkali metal and alkaline earth metal ions Na^+, K^+, Ca^2+ and Mg^2+ (1 mM) and transition metal ions Mn^2+, Fe^2+, Co^2+, Ni^2+, Zn^2+, Pd^2+, Cd^2+ and […] in EtOH/HEPES (9/1 v/v, pH 7.0), and the white bars show the result obtained after further addition of 200 μM Cu^2+.

[4] = pH dependence of Ired/Iblue ratio; format: physicochemical; conditions: 3 μM ACCu2, 200 μM copper(II) ion, excitation 365 nm
Source text: The excitation wavelength was 365 nm. […] The increase in the Ired/Iblue ratio at pH<6 can be attributed to the protonation of the nitrogen atom in the pyridine moiety as shown in [Chemical Formula 19]. On the other hand, the increase in the Ired/Iblue ratio at pH>7.0 can be attributed to the decreased copper(II) ion concentration due to the formation of Cu(OH)2. This outcome is different from that reported for the existing one-photon probe.

[5] = test system: HeLa cells; assay: Two-photon microscopy of ACCu2-labeled HeLa cells, copper(II) ion estimation; format: cell-based, human; conditions: for free copper(II) ion concentration: from Ired/Iblue ratio and titration curve
Source text: The two curves were similar to the TPEF spectra of HeLa cells labeled with FL and IR. And, the OP-excited fluorescence (OPEF) spectra of FL and IR measured in EtOH/HEPES (9/1 v/v, pH=7.0) (see Table 1 and FIG. 1) confirmed that this solvent is a good model of the intracellular environment.
In order to investigate the utility of ACCu2 in living cells, TPM images of ACCu2-labeled HeLa cells and tissues were obtained using spectral confocal and multiphoton microscopes (Leica TCS SP2) with ×100 (NA=1.30 OIL) and ×40 (NA=0.75 DRY) objective lenses.
The TPM images were obtained with the DM IRE2 microscope (Leica) by exciting the probes with a mode-locked titanium-sapphire laser source (Coherent Chameleon, 90 MHz, 200 fs) set at a wavelength of 780 nm and an output power of 1305 mW. To obtain images at 400-650 nm, internal PMTs were used to collect signals in 8-bit unsigned 512×512 pixels at a scan rate of 400 Hz.
HeLa human cervical carcinoma cells were acquired from the ATCC (Manassas, Va., USA). The cells were cultured in DMEM (WelGene, Inc., Seoul, Korea) supplemented with heat-inactivated 10% FBS (WelGene), penicillin (100 units/mL) and streptomycin ([…]), All the cell lines were maintained in a humidified atmosphere of 5% CO2 and 95% air at 37° C. Two days before imaging, the cells were moved and plated onto glass-bottomed dishes (MatTek), For labeling, the growth medium was removed and replaced with FBS-free DMEM. The cells were incubated with 3 μM ACCu2 for 20 minutes at 37° C., washed 3 times with FBS-free DMEM and imaged.
Ratiometric images were constructed from the TPEF intensities collected in the two channels (FIG. 9(a)-(c)). The Ired/Iblue ratio for the ACCu2-labeled HeLa cells was measured as 9.9±0.8 (FIG. 9(d)). The ratio decreased to 6.5 upon addition of copper(II) ion (200 μM) and pyrrolidine dithiocarbamate (PDTC, 100 μM) due to accumulation of copper(II) ion inside the cells, and increased to 9.8 upon treatment with ethylenediaminetetraacetic acid (EDTA, 100 μM), a […] metal on chelator that effectively removes copper(II) ion.
Since Iblue remains constant, ACCu2 according to the present disclosure can measure the Ired/Iblue ratio more accurately than the existing probe which requires the measurements of the changes in both Ired and Iblue. The free copper(II) ion concentration was calculated as 0.0±0.7 μM (FIG. 9(a)), 15±2 μM (FIG. 9(b)) and 0.0±1.9 μM (FIG. 9(c)) from the Ired/Iblue ratio and the titration curve shown in FIG. 5(b).

[6] = ACCu2-labeled HeLa cells, 750 nm TP excitation, scanning lambda mode

For `COCCOCCOCCOc1ccc2c(ccc3cc(C(=O)N4CCN(C(=O)c5ccc(CNC(=O)c6cc7cc8ccc(N(C)C)cc8cc7oc6=O)nc5)CC4)c(=O)oc32)c1` [ACCu2], the solubility [1] was 8 µM (≈ 6.96 µg/mL), the “Φδmax (two-photon action cross section)” value [2] was 32 GM and the “selectivity for Cu2+ in the presence of competing metal ions” value [3] was “uninterrupted in the presence of the alkali metal, alkaline earth metal or transition metal ions”. The “pH at which Ired/Iblue ratio shows a minimum” value [4] was 6-7, the “TPEF emission maximum, first Gaussian function (solid curve)” value [5, 6] was 470 nm and the “TPEF emission maximum, second Gaussian function (dotted curve)” value [5, 6] was 582 nm. The Ired/Iblue ratio ([5]; ACCu2-labeled HeLa cells, before addition of copper(II) ion) was 9.9±0.8, the “free copper(II) ion concentration” value ([5]; HeLa cells, FIG. 9(a)) was 0.0 ± 0.7 µM and the “free copper(II) ion concentration” value ([5]; HeLa cells, FIG. 9(b)) was 15 ± 2 µM. For the same molecule, the “free copper(II) ion concentration” value ([5]; HeLa cells, FIG. 9(c)) was 0.0 ± 1.9 µM, the Ired/Iblue ratio ([5]; HeLa cells, after copper(II) ion (200 μM) and PDTC (100 μM)) was 6.5 and the Ired/Iblue ratio ([5]; HeLa cells, after further treatment with EDTA (100 μM)) was 9.8.

— US9248202B2, “Two-photon probe for detecting copper(II) ion and quantitative estimation of copper(II) ion in human tissue using the same” (Korea University Research and Business Foundation, priority 2014, dated 2016)
